# Measurements: US20170129903A1, “COMPOUNDS COMPRISING 1,1a,2,5a-TETRAHYDROSPIRO[INDOLE-3,2a-PYRROLE]-2,5a-DIONE SYSTEM AS INHIBITORS P53-MDM2 PROTEIN-PROTEIN INTERACTION” (ADAMED SP. Z O.O., priority 2014, published 2017)
# Experiments:
# [1] = molecular target: T1, p53-Mdm2 interaction (N-terminal domain of Mdm2 protein, amino acids 1-111) (Homo sapiens, UniProt Q00987); assay: Fluorescence polarization (FP) binding assay of p53-Mdm2 interaction; conditions: FP assay, 130 nM Mdm2, FAM-labelled p53 peptide; Ki transformed from IC50 using Kenakin equation
# T1 construct: N-terminal domain of Mdm2 protein (amino acids 1-111)
# Procedure: The inhibition of p53-Mdm2 interaction was measured using a fluorescence polarization (FP) binding assay. FP measures the rotational movement of molecules in a homogenous suspension. For this assay, N-terminal domain of Mdm2 protein (amino acids 1-111) is combined with a fluorescein-labelled (FAM) peptide derived from p53 trans-activation domain. Upon excitation of the fluorescent ligand with linearly polarized light, […]. If the peptide is bound by Mdm2, rotation will slow down and the perpendicular component will decrease. Disruption of the formation of the peptide-Mdm2 complex due to an inhibitor molecule binding to the p53 binding site of Mdm2 results in faster rotation of the peptide.
# Fluorescence polarization experiments were read on Tecan Infinite M1000 reader with the 470 nm excitation and 520 nm emission filters for fluorescein. The fluorescence polarization was measured in black 96-well plates (Corning, CLS3991) in room temperature. Purity of Mdm2 was controlled at >95%. Reaction buffer was optimized by adding 5 mM DTT and 0.1% zwitterionic detergent CHAPS to reduce effect of nonspecific interactions.
# The test was performed by combining successive dilution of compounds diluted in dimethyl sulfoxide (DMSO, 5% final concentration) with 130 nM Mdm2 in reaction buffer (PBS, 0.1% CHAPS, 5 mM DTT (dithiothreitol)). After 15 minutes of incubation in room temperature […] FAM-labelled peptide was added. Final reading was performed after 90 minutes of incubation. Dose-dependent binding curves and IC50 values were calculated using GraphPad Prism5 and next transformed to Ki values using Kenakin equation.
# [2] = system: SJSA-1 osteosarcoma cell line; assay: MTT cell viability assay; assay type: cell-based; conditions: 72 h incubation, average of 2-5 experiments
# Procedure: The effect of the invented p53-Mdm2 inhibitors on cell viability has been assessed using MTT assay. It is a colorimetric assay that measures conversion of tetrazolium ring of the soluble yellow dye (MTT) into insoluble purple formazan. This process is catalysed solely in mitochondrial dehydrogenases of living cells.
# Cells were seeded on 96-well plates and then treated with successive dilutions of tested compounds. After 72 h incubation, MTT was added to the final concentration 0.5 mg/ml. The cells were further incubated for the next 4 h. Then the solution was drained and the remaining formazan crystals were dissolved in 100 μl DMSO. […] All the MTT experiments were independently repeated 2-5 times. Dose-dependent binding curves and IC50 values were calculated using GraphPad Prism 5.
# T1 sequence (Q00987 1-111): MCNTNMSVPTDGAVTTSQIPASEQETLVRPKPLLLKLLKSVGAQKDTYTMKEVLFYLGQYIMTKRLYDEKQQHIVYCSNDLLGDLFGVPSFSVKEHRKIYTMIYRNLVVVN
SMILES,Ki [1] [nM],"IC50 ([2]; Homo sapiens, SJSA-1, 72 h) [µM]",IC50 [2] [µM]
"COc1ccccc1-n1cc2c(c1C(C)C)[C@@]1(C(=O)Nc3cc(Cl)ccc31)N(c1cc(Cl)ccc1NS(C)(=O)=O)C2=O [Compound 102, N-{4-chloro-2-[(3S)-6-chloro-5′-(2-methoxy-phenyl)-2,3′-dioxo-6′-(propan-2-yl)-1,2,3′,5′-tetrahydro-2′H-spiro[indole-3,1′-pyrrolo[3,4-c]pyrrole]-2′-yl]phenyl} methanesulfonamide]",2.9,0.66,
"CCN(CC)S(=O)(=O)c1ccc(OC)c(-n2cc3c(c2C(C)C)C2(C(=O)Nc4cc(Cl)ccc42)N(c2cc(Cl)ccc2C)C3=O)c1 (stereo not shown) [Compound 98, 3-[6-chloro-2′-(5-chloro-2-methylphenyl)-2,3′-dioxo-6′-(propan-2-yl)-1,2,3′,5′-tetrahydro-2′H-spiro[indole-3,1′-pyrrolo [3,4-c]pyrrole]-5′-yl]-N,N-diethyl-4-methoxybenzene-1-sulfonamide]",4.6,0.38,
"CN(C)C(=O)C1CCCC1Cn1nc2c(c1C1(C)CC1)C1(C(=O)Nc3cc(Cl)ccc31)N(c1cccc(Cl)c1)C2=O (stereo not shown) [Compound 29, 2-[6-chloro-5′-(3-chlorophenyl)-3′-(1-methylcyclopropyl)-2,6′-dioxo-1,2,5′,6′-tetrahydro-2′H-spiro[indole-3,4′-pyrrolo [3,4-c]pyrazole]-2′-ylmethyl]-N,N-dimethylcyclopentane-1-carboxamide]",358,48.8,
"COc1ccc(S(=O)(=O)N2CCOCC2)cc1-n1cc2c(c1C(C)C)C1(C(=O)Nc3cc(Cl)ccc31)N(c1cc(Cl)ccc1C)C2=O (stereo not shown) [Compound 112, 6-chloro-2′-(5-chloro-2-methylphenyl)-5′-[2-methoxy-5-(morpholine-4-sulfonyl)phenyl]-6′-(propan-2-yl)-1,2,3′,5′-tetrahydro-2′H-spiro[indole-3,1′-pyrrolo [3,4-c]pyrrole]-2,3′-dione]",3.5,0.15,
"COc1ccccc1-n1cc2c(c1C(C)C)C1(C(=O)Nc3cc(Cl)ccc31)N(c1cc(Cl)ccc1C(N)=O)C2=O (stereo not shown) [Compound 99, 4-chloro-2-[6-chloro-5′-(2-methoxy-phenyl)-2,3′-dioxo-6′-(propan-2-yl)-1,2,3′,5′-tetrahydro-2′H-spiro[indole-3,1′-pyrrolo[3,4-c]pyrrole]-2′-yl]benzamide]",6.7,0.65,
"O=C1C(O)=C(c2ccccc2)C2(C(=O)Nc3cc(Cl)c(Cl)cc32)N1c1cccc(Cl)c1 (stereo not shown) [Compound 43, 5,6-dichloro-1′-(3-chlorophenyl)-4′-hydroxy-3′-phenyl-1,1′,2,5′-tetrahydrospiro [indole-3,2′-pyrrole]-2,5′-dione]",650,43.8,
"CCc1ccccc1-n1nc2c(c1C(C)C)C1(C(=O)Nc3cc(Cl)ccc31)N(c1cc(Cl)ccc1C)C2=O (stereo not shown) [Compound 67, 6-chloro-5′-(5-chloro-2-methylphenyl)-2′-(2-ethylphenyl)-3′-(propan-2-yl)-1,2,5′,6′-tetrahydro-2′H-spiro[indole-3,4′-pyrrolo [3,4-c]pyrazole]-2,6′-dione]",86,12.4,
"COc1ccc(C(N)=O)cc1-n1cc2c(c1C(C)C)C1(C(=O)Nc3cc(Cl)ccc31)N(c1cc(Cl)ccc1C)C2=O (stereo not shown) [Compound 95, 3-[6-chloro-2′-(5-chloro-2-methylphenyl)-2,3′-dioxo-6′-(propan-2-yl)-1,2,3′,5′-tetrahydro-2′H-spiro[indole-3,1′-pyrrolo [3,4-c]pyrrole]-5′-yl]-4-methoxybenzamide]",1.8,0.3,
"Cc1ccc(Cl)cc1N1C(=O)c2cn(-c3cccc4c3OCO4)c(C(C)C)c2C12C(=O)Nc1cc(Cl)ccc12 (stereo not shown) [Compound 94, 5′-(2H-1,3-benzodioxol-4-yl)-6-chloro-2′-(5-chloro-2-methylphenyl)-6′-(propan-2-yl)-1,2,3′,5′-tetrahydro-2′H-spiro[indole-3,1′-pyrrolo[3,4-c]pyrrole]-2,3′-dione]",9.6,0.93,
"O=C1C(O)=C(c2ccccc2)C2(C(=O)Nc3cc(Cl)ccc32)N1c1cccc(Cl)c1 (stereo not shown) [Compound 41, 6-chloro-1′-(3-chlorophenyl)-4′-hydroxy-3′-phenyl-1,1′,2,5′-tetrahydrospiro[indole-3,2′-pyrrole]-2,5′-dione]",24,21.4,
"COc1ccccc1-n1cc2c(c1C(C)C)C1(C(=O)Nc3cc(Cl)ccc31)N(c1cc(Cl)ccc1C(=O)O)C2=O (stereo not shown) [Compound 105, 4-chloro-2-[6-chloro-5′-(2-methoxyphenyl)-2,3′-dioxo-6′-(propan-2-yl)-1,2,3′,5′-tetrahydro-2′H-spiro[indole-3,1′-pyrrolo[3,4-c]pyrrole]-2′-yl]benzoic acid]",4.3,9.98,
"COc1ccc(Cl)cc1N1C(=O)c2n[nH]c(C3(C)CC3)c2C12C(=O)Nc1cc(Cl)ccc12 (stereo not shown) [Compound 22, 6-chloro-5′-(5-chloro-2-methoxyphenyl)-3′-(1-methylcyclopropyl)-1,2,5′,6′-tetrahydro-2′H-spiro[indole-3,4′-pyrrolo [3,4-c]pyrazole]-2,6′-dione]",120,6.95,
"CSc1ccccc1-n1nc2c(c1C(C)C)C1(C(=O)Nc3cc(Cl)ccc31)N(c1cc(Cl)ccc1C)C2=O (stereo not shown) [Compound 77, 6-chloro-5′-(5-chloro-2-methylphenyl)-2′-[2-(methylsulfanyl)phenyl]-3′-(propan-2-yl)-1,2,5′,6′-tetrahydro-2′H-spiro[indole-3,4′-pyrrolo[3,4-c]pyrazole]-2,6′-dione]",30,8.57,
"COc1ccccc1-n1nc2c(c1C(C)C)[C@@]1(C(=O)Nc3cc(Cl)ccc31)N(c1cncc(Cl)c1)C2=O [Compound 88, (3S)-6-chloro-5′-(5-chloropyridin-3-yl)-2′-(2-methoxyphenyl)-3′-(propan-2-yl)-1,2,5′,6′-tetrahydro-2′H-spiro[indole-3,4′-pyrrolo[3,4-c]pyrazole]-2,6′-dione]",1.9,,0.34
"COc1ccccc1-n1nc2c(c1C(C)C)C1(C(=O)Nc3cc(Cl)ccc31)N(c1cc(Cl)cnc1C)C2=O (stereo not shown) [Compound 71, 6-chloro-5′-(5-chloro-2-methylpyridin-3-yl)-2′-(2-methoxyphenyl)-3′-(propan-2-yl)-1,2,5′,6′-tetrahydro-2′H-spiro[indole-3,4′-pyrrolo[3,4-c]pyrazole]-2,6′-dione]",4.3,0.46,
"COc1ccc(-n2cc3c(c2C(C)C)[C@@]2(C(=O)Nc4cc(Cl)ccc42)N(c2cc(Cl)cnc2C)C3=O)c(OC)c1 [Compound 111, (3S)-6-chloro-2′-(5-chloro-2-methyl-pyridin-3-yl)-5′-(2,4-dimethoxyphenyl)-6′-(propan-2-yl)-1,2,3′,5′-tetrahydro-2′H-spiro[indole-3,1′-pyrrolo[3,4-c]pyrrole]-2,3′-dione]",2.8,0.12,
"COc1ccc(CSC2=C(O)C(=O)N(c3cccc(Cl)c3)C23C(=O)Nc2cc(Cl)ccc23)cc1 (stereo not shown) [Compound 59, 6-chloro-1′-(3-chlorophenyl)-4′-hydroxy-3′-{[(4-methoxyphenyl)methyl]sulfanyl}-1,1′,2,5′-tetrahydrospiro[indole-3,2′-pyrrole]-2,5′-dione]",178,37.5,
